In patent US8569281B2, “Compounds and their administration for treating a neurodegenerative disease as well as a method for identifying a compound capable of inhibiting a kinase, such as LRRK” (Medical Research Council Technology, priority 2010, dated 2013):

Target: LRRK2 (Homo sapiens (Human), UniProt Q5S007)
Test: In Vitro LRRK2 Assay (LabChip 3000, fluorescently-labeled peptide substrate)
Format: biochemical
Details: ATP 130 μM, substrate 1 μM, 2 hours, ambient temperature; LRRK2 variant not given; read-out: Ki (μM), affinity values for LRRK2
Description: This assay was used to determine a compound's potency in inhibiting activity of LRRK2 by determining, Kiapp, IC50, or percent inhibition values. In a polypropylene plate, LRRK2, fluorescently-labeled peptide substrate, ATP and test compound were incubated together. Using a LabChip 3000 (Caliper Life Sciences), after the reaction the substrate was separated by capillary electrophoresis into two populations: phosphorylated and unphosphorylated. The relative amounts of each were quantitated by fluorescence intensity. LRRK2 Ki was determined according to the equation: Y=V0*(1−((x+Ki*(1+S/Km)+Et)/(2*Et)−(((x+Ki*(1+S/Km)+Et)^2−(4*Et*x))^0.5)/(2*Et))).
Ki values in Table 4 and elsewhere herein are shown in μM.
Assay conditions and materials used were as follows:
Compound Plate Preparation:
For serial dilutions, 34.6 μl DMSO was added to columns 3-24.
Total and Blank Preparation:
In Complete Reaction Buffer, substrate was diluted to 4 μM. Equal volumes of Complete Reaction Buffer and 4 μM substrate were combined to obtain the blank. Equal volumes of Complete Reaction Buffer and 4 μM substrate were combined and to the combined solution was added 2× final LRRK2 concentration.
To a 50 μl polypropylene plate, 5 μl/well buffer/substrate was added by hand to Blank wells. A Biomek FX was used to start the kinase reaction (“PLK SAR 23 ATP”). The following were added to the appropriate wells: • 2 μl compound+23 μl ATP; • 5 μl/well compound/ATP in Assay Plate; • 5 μl/well kinase/substrate in Assay Plate;
The plate was incubated for 2 hours in the dark. Biomek FX was used to stop the kinase reaction (“PLK Stop”), and 10 μl/well Stop solution was added to the Assay Plate. Results were read on the LabChip 3000.
The LabChip 3000 was run using the job “LRRK2 IC50” with the following job settings: • Pressure: −1.4 psi • Downstream voltage: −500 V • Upstream voltage: −2350 V • Post sample buffer sip time: 75 seconds • Post dye buffer sip time: 75 seconds • Final delay time: 200 seconds Parkinson's Disease Animal Model

Sequence of LRRK2 (Q5S007 whole entry G2019S): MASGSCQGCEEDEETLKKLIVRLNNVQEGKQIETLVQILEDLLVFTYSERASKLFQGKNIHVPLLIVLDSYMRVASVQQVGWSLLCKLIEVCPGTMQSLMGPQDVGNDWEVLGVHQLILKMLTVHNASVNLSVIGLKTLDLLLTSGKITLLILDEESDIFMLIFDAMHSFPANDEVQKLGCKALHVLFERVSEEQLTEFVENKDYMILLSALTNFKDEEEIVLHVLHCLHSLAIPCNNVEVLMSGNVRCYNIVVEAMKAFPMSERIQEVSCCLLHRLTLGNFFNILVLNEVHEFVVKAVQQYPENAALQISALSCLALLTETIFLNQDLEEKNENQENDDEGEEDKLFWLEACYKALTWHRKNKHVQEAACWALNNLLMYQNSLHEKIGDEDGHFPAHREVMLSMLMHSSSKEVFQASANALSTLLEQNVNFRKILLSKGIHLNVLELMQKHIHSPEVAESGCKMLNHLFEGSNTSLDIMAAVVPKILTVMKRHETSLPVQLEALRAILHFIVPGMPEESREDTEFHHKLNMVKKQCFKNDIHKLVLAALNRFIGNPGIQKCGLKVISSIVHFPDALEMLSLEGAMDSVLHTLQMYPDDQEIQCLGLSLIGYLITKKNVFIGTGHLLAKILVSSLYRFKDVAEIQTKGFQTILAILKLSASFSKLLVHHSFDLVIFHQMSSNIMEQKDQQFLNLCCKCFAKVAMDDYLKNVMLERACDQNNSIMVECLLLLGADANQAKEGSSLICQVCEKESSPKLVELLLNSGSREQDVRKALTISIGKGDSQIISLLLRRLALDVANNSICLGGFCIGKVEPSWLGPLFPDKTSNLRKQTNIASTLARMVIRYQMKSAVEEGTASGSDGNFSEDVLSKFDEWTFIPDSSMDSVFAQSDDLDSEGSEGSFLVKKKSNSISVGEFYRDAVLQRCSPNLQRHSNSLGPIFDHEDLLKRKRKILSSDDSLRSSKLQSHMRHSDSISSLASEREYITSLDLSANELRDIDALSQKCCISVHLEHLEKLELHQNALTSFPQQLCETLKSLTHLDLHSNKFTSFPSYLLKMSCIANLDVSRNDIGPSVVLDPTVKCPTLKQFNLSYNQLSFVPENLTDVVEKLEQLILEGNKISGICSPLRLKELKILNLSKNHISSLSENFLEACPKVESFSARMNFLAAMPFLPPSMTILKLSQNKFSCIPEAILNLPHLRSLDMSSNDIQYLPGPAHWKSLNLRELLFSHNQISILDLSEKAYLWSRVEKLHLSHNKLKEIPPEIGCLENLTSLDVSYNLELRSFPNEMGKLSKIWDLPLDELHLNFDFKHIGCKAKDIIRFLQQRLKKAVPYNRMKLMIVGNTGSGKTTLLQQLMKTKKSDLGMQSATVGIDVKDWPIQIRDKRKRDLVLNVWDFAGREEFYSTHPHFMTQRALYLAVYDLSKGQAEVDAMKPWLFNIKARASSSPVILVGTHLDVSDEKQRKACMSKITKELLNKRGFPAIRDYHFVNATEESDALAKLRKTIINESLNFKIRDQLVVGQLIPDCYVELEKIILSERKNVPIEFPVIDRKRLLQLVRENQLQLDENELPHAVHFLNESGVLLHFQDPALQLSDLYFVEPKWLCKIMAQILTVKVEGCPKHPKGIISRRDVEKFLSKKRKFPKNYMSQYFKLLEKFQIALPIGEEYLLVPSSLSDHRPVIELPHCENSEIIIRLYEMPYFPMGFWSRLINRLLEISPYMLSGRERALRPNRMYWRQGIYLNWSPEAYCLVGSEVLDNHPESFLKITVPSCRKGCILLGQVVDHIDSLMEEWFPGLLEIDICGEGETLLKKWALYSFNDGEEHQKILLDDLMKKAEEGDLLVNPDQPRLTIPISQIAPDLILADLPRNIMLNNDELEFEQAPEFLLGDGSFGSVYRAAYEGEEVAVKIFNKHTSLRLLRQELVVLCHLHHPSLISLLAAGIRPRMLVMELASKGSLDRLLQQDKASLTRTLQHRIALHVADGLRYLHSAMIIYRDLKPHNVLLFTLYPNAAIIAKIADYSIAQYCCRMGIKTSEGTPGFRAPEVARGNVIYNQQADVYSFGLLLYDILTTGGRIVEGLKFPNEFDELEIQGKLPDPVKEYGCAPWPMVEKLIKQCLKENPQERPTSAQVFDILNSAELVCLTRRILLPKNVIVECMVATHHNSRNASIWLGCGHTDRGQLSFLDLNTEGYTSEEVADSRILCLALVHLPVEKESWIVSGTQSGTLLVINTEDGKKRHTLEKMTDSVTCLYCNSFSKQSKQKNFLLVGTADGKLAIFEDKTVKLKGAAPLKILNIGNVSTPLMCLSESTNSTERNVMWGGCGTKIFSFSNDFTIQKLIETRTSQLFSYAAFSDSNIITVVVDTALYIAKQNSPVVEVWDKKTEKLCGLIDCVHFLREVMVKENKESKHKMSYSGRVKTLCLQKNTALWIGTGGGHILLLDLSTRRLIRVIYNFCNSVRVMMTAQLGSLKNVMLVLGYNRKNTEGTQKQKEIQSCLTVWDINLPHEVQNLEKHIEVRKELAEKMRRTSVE

| Compound | Ki [µM] |
| --- | --- |
| c1cc2[nH]nc(-c3ccc4ncn(C5CCOC5)c4c3)c2c(OC2CCOCC2)n1 (stereo not shown) [Example 128, 4-(Tetrahydro-2H-pyran-4-yloxy)-3-(1-(tetrahydrofuran-3-yl)-1H-benzo[d]imidazol-6-yl)-1H-pyrazolo[4,3-c]pyridine] | 0.034 |
| CC(C)n1cc(-c2n[nH]c3ccnc(OC4CCOCC4)c23)cc1C(=O)N(C)C [Example 66, 1-isopropyl-N,N-dimethyl-4-(4-(tetrahydro-2H-pyran-4-yloxy)-1H-pyrazolo[4,3-c]pyridin-3-yl)-1H-pyrrole-2-carboxamide] | 0.045 |
| c1cc2[nH]nc(-c3ccc4nc[nH]c4c3)c2c(OC2CCOCC2)n1 [Example 139, 3-(1H-Benzo[d]imidazol-6-yl)-4-(tetrahydro-2H-pyran-4-yloxy)-1H-pyrazolo[4,3-c]pyridine] | 0.014 |
| CC(C)Oc1nccc2[nH]nc(-c3cc(C(=O)N(C)C)n(C(C)C)c3)c12 [Example 54, 4-(4-isopropoxy-1H-pyrazolo[4,3-c]pyridine-3-yl)-1-isopropyl-N,N-dimethyl-1H-pyrrole-2-carboxamide] | 0.018 |
| COc1nccc2[nH]nc(-c3cc(C(=O)N(C)C)n(C(C)C)c3)c12 [Example 61, 1-Isopropyl-4-(4-methoxy-1H-pyrazolo[4,3-c]pyridin-3-yl)-N,N-dimethyl-1H-pyrrole-2-carboxamide] | 0.077 |
| c1cc(-c2n[nH]c3ccnc(OC4CCOCC4)c23)nc(N2CCOCC2)n1 [Example 84, 4-(4-(4-(tetrahydro-2H-pyran-4-yloxy)-1H-pyrazolo[4,3-c]pyridin-3-yl)pyrimidin-2-yl)morpholine] | 0.065 |
| COc1nccc2[nH]nc(-c3ccnc(N4CCOCC4)c3)c12 [Example 107, 4-(4-(4-Methoxy-1H-pyrazolo[4,3-c]pyridin-3-yl)pyridin-2-yl)morpholine] | 0.029 |
| Cn1cc(/C=C/c2n[nH]c3ccnc(OC4CCCCC4)c23)cn1 [Example 52, 4-(Cyclohexyloxy)-3-[(E)-2-(1-methyl-1H-pyrazol-4-yl)ethenyl]-1H-pyrazolo[4,3-c]pyridine] | 0.0003 |
| CC(C)n1cc(-c2n[nH]c3ccnc(OC(C)C(F)(F)F)c23)cn1 (stereo not shown) [Example 78, 3-(1-Isopropyl-1H-pyrazol-4-yl)-4-(2,2,2-trifluoro-1-methyl-ethoxy)-1H-pyrazolo[4,3-c]pyridine] | 0.013 |
| O=C(c1cc(-c2n[nH]c3ccnc(OC4CCOCC4)c23)ccn1)N1CCOCC1 [Example 73, Morpholino(4-(4-(tetrahydro-2H-pyran-4-yloxy)-1H-pyrazolo[4,3-c]pyridin-3-yl)pyridin-2-yl)methanone] | 0.221 |
| CC(C)n1cc(-c2n[nH]c3ccnc(OC4CCOCC4)c23)cc1C(=O)NC1COC1 [Example 70, 1-isopropyl-N-(oxetan-3-yl)-4-(4-(tetrahydro-2H-pyran-4-yloxy)-1H-pyrazolo[4,3-c]pyridin-3-yl)-1H-pyrrole-2-carboxamide] | 0.003 |
| CC(C)Oc1nccc2[nH]nc(-c3cc(C(=O)N4CCCCC4)n(C(C)C)c3)c12 [Example 56, (4-(4-Isopropoxy-1H-pyrazolo[4,3-c]pyridin-3-yl)-1-isopropyl-1H-pyrrol-2-yl)(piperidin-1-yl)methanone] | 0.019 |
| c1cc2[nH]nc(-c3cnn(C4CCOC4)c3)c2c(OC2CCOCC2)n1 (stereo not shown) [Example 98, 4-(Tetrahydro-2H-pyran-4-yloxy)-3-(1-(tetrahydrofuran-3-yl)-1H-pyrazol-4-yl)-1H-pyrazolo[4,3-c]pyridine] | 0.005 |
| CC[C@@H](C)Oc1nccc2[nH]nc(C3CC3)c12 [Example 29, 3-Cyclopropyl-4-[(2R)-butan-2-yloxy)-1H-pyrazolo[4,3-c]pyridine] | 0.078 |
| COc1nccc2[nH]nc(-c3ccnc(N4C[C@@H]5C[C@H]4CO5)c3)c12 [Example 118, (1S,4S)-5-(4-(4-Methoxy-1H-pyrazolo[4,3-c]pyridin-3-yl)pyridin-2-yl)-2-oxa-5-azabicyclo[2.2.1]heptanes] | 0.051 |
| CC(C)Oc1nccc2[nH]nc(-c3cc(C(=O)NC4COC4)n(C(C)C)c3)c12 [Example 59, 4-(4-Isopropoxy-1H-pyrazolo[4,3-c]pyridin-3-yl)-1-isopropyl-N-(oxetan-3-yl)-1H-pyrrole-2-carboxamide] | 0.0024 |
| COc1nccc2[nH]nc(-c3cc(C(=O)NC4COC4)n(C(C)C)c3)c12 [Example 64, 1-isopropyl-4-(4-methoxy-1H-pyrazolo[4,3-c]pyridin-3-yl)-N-(oxetan-3-yl)-1H-pyrrole-2-carboxamide] | 0.014 |

Next, values leading:

| Ki [µM] | Compound |
| --- | --- |
| 0.107 | c1cc(CN2CCOCC2)cc(-c2[nH]nc3ccnc(OC4CCOCC4)c23)c1 [Example 161, 4-(3-(4-(Tetrahydro-2H-pyran-4-yloxy)-1H-pyrazolo[4,3-c]pyridin-3-yl)benzyl)morpholine] |
| 0.021 | CC(=O)Nc1ccc(-c2cc(-c3n[nH]c4ccnc(OC5CCOCC5)c34)ccn2)cn1 [Example 207, N-(4-(4-(tetrahydro-2H-pyran-4-yloxy)-1H-pyrazolo[4,3-c]pyridin-3-yl)-2,3′-bipyridin-6′-yl)acetamide] |
| 0.09 | COc1nccc2n[nH]c(-c3ccc(S(C)(=O)=O)cc3)c12 [Example 173, 4-methoxy-3-(4-(methylsulfonyl)phenyl)-1H-pyrazolo[4,3-c] pyridine] |
| 0.023 | COCCOc1nccc2[nH]nc(-c3ccnc(N4CCOCC4)c3)c12 [Example 178, 4-(4-(4-(2-methoxyethoxy)-1H-pyrazolo[4,3-c]pyridin-3-yl)pyridin-2-yl) morpholine] |
| 0.199 | CNC(=O)c1cccc(-c2[nH]nc3cc(C)nc(OC)c23)c1 [Example 235, 3-(4-methoxy-6-methyl-1H-pyrazolo[4,3-c]pyridin-3-yl)-N-methylbenzamide] |
| 0.172 | N#Cc1cncc(-c2n[nH]c3ccnc(OC4CCOCC4)c23)c1 [Example 156] |
| 0.03 | CC(C)n1cc(Nc2[nH]nc3ccnc(OC4CCOCC4)c23)cn1 [Example 164, N-(1-Isopropyl-1H-pyrazol-4-yl)-4-(tetrahydro-2H-pyran-4-yloxy)-1H-pyrazolo[4,3-c]pyridin-3-amine] |
| 0.1 | COC(=O)c1[nH]nc2ccnc(NC3CCOCC3)c12 [Example 185, methyl 4-(tetrahydro-2H-pyran-4-ylamino)-1H-pyrazolo[4,3-c]pyridine-3-carboxylate] |
| 0.006 | CC(C)Oc1nccc2[nH]nc(-c3cc(C(=O)N4CCCC4)n(C(C)C)c3)c12 [Example 216, [4-(4-Isopropoxy-1H-pyrazolo[4,3-c]pyridin-3-yl)-1-isopropyl-1H-pyrrol-2-yl]-pyrrolidin-1-yl-methanone] |
| 0.012 | c1cc(-c2n[nH]c3ccnc(OC4CCOCC4)c23)cc(-c2cn[nH]c2)n1 [Example 204, 3-(2-(1H-pyrazol-4-yl)pyridin-4-yl)-4-(tetrahydro-2H-pyran-4-yloxy)-1H-pyrazolo[4,3-c]pyridine] |
| 0.0784 | CC(C)NC(=O)c1cccc(-c2[nH]nc3ccnc(OC4CCOCC4)c23)c1 [Example 154, N-Isopropyl-3-(4-(tetrahydro-2H-pyran-4-yloxy)-1H-pyrazolo[4,3-c]pyridin-3-yl)benzamide] |
| 0.015 | CNC(=O)c1cccc(-c2cc(-c3n[nH]c4ccnc(OC5CCOCC5)c34)ccn2)c1 [Example 211, N-methyl-3-(4-(4-(tetrahydro-2H-pyran-4-yloxy)-1H-pyrazolo[4,3-c]pyridin-3-yl)pyridin-2-yl)benzamide] |
| 0.013 | c1cc2[nH]nc(-c3cnn(C4CCOCC4)c3)c2c(OC2CCOCC2)n1 [Example 186, 3-(1-(tetrahydro-2H-pyran-4-yl)-1H-pyrazol-4-yl)-4-(tetrahydro-2H-pyran-4-yloxy)-1H-pyrazolo[4,3-c]pyridine] |
| 0.271 | Cc1[nH]nc2cc(C3CC3)nc(OC3CCCCC3)c12 [Example 148, 4-(Cyclohexyloxy)-6-cyclopropyl-3-methyl-1H-pyrazolo[4,3-c]pyridine] |
| 0.154 | CNC(=O)c1cccc(-c2[nH]nc3cc(C)nc(OC4CCOCC4)c23)c1 [Example 171, N-methyl-3-(6-methyl-4-(tetrahydro-2H-pyran-4-yloxy)-1H-pyrazolo[4,3-c]pyridin-3-yl)benzamide] |
| 0.007 | CC(C)c1nc(-c2n[nH]c3ccnc(NC4CCOCC4)c23)n[nH]1 [Example 168, 3-(5-Isopropyl-4H-1,2,4-triazol-3-yl)-N-(tetrahydro-2H-pyran-4-yl)-1H-pyrazolo[4,3-c]pyridin-4-amine] |
| 0.021 | c1cncc(-c2cc(-c3n[nH]c4ccnc(OC5CCOCC5)c34)ccn2)c1 [Example 197, 3-(2,3′-bipyridin-4-yl)-4-(tetrahydro-2H-pyran-4-yloxy)-1H-pyrazolo[4,3-c]pyridine] |
